Laboratory results as given in article PMC5650142, “GPR40 partial agonists and AgoPAMs: Differentiating effects on glucose and hormonal secretions in the rodent” (PLoS ONE, 2017).
Several values for one entry are separate records, joined by “and”; a condition that tells them apart may be missing. Equal entries are not always repeated.

What was measured:
[1] = test system: wild type C57BL/6 and GLP-1R-/- mice; assay: Mouse glucose tolerance test (IPGTT, wild type and GLP-1R-/- mice); type: in vivo; design: Plasma Insulin Net AUC: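 insulin AUC integrated from 0 to 60 min after dextrose challenge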; Blood Glucose Net AUC: unit not given here; details: for Blood Glucose / Plasma Insulin: 10 mpk, 10 mg/kg; for Blood Glucose Net AUC / Plasma Insulin Net AUC: @ 10, individual animals
Description: Wild type C57BL/6 mice and GLP-1R^-/- mice were fed a high fat diet (D12492i, Research Diets) for 6 weeks prior to GTT. On the day of study, mice were fasted at 1 h post lights on, and body weights were measured. […] Mice were then dosed PO at a volume of 10 ml/kg with vehicle (0.5% methylcellulose), MK-2305 (a GPR40 partial agonist described in Hauge et al) at 10 mg/kg, or AP1 at 30 mg/kg. Dosages of MK-2305 and AP1 were administered at maximal efficacious doses as determined by acute dose titrations with efficacy determined via reduction in glucose during an IPGTT (data not shown). […] Blood glucose was measured again (time = 0) just prior to an intraperitoneal (IP) dextrose challenge of 1 g/kg at 10 ml/kg dose volume (Dextrose, Hospira Inc., Lake Forrest IL). A subset of vehicle treated mice was injected with 0.9% NaCl saline to serve as negative control. Blood glucose was then measured at 10, 20, 40, 60, and 120 min after challenge. To capture insulin secretion during the IPGTT, blood via tail vein was collected at t = - 60, 0, 10, 20, 40, 60 min post challenge.
Net AUC was calculated by subtracting the average AUC of the saline group from each groups’ total AUC.
(§1) Blood for insulin, glucagon, GLP-1, GIP, and PYY measurements was collected into K2EDTA Microtainer tubes (BD, Franklin Lakes, NJ) pre-treated with DPP4 inhibitor (Millipore, Billerica, MA) and cOmplete™ Protease Inhibitor Cocktail Tablets (Roche Diagnostics, Indianapolis, IN). Tubes were centrifuged for 10 minutes at 5000 RPM, and plasma was aliquotted for analysis. Plasma insulin levels were measured via EIA (Mesoscale Discovery ELISA Kit, Gaithersburg MD). Rat plasma total GLP-1 was measured using Total GLP-1 (ver.2) Assay Kit (Cat#: K150JVC). The measurement of active GLP-1 was carried out in a similar manner as that described for total GLP-1 assay with the exception that MSD Active GLP-1 (ver. 2) assay kit (Cat# K150JWC) was used. Rat plasma glucagon was measured using an in-house glucagon assay developed as a MSD format sandwich immunoassay (Merck & Co., Inc., MRL, Kenilworth, NJ USA). The antibody specificity was cross validated via mass- spec using procedures described in Lee et al. Briefly, MSD Streptavidin Gold plates were coated with 2 μg/ml biotin mouse monoclonal antibody generated to glucagon. Test samples were added to the plates and a separate Sulfo- tagged monoclonal antibody was used to detect the captured glucagon protein (2 μg/ml). The ELISA was carried out in the standard reagents in the MSD format. The plate was read on the SECTOR Imager 6000 Reader. Metabolic hormones GIP (Gastric Inhibitory Polypeptide) and PYY (Peptide YY) were measured in rat plasma using the Rat Metabolic Magnetic Bead Panel (EMD Millipore, Billerica, MA). The assay was performed according to manufacturer protocol.

[2] = test system: wild type and GPR40-/- mice; assay: Mouse incretin measurements (plasma glucagon, wild type and GPR40-/- mice); type: in vivo; details: for Plasma Glucagon: @ 30, individual animals (Fig 6A)
Description: Wild type and GPR40-/- mice were weighed the day prior to dosing. Food was removed from mice at lights on. 2 hours later mice were dosed via oral gavage (PO) at a volume of 10 ml/kg with vehicle (0.5% methylcellulose), AP1 at 30 mg/kg, or AP3 at 30 mg/kg. At 60 minutes post dose, mice were euthanized via CO2 asphyxiation. Blood was collected via cardiac puncture.
as §1

[3] = GLP-1R-/- and wild type mice, MK-2305 10 mg/kg, AP1 30 mg/kg PO
[4] = KO mice, Time 0, individual animals
[5] = KO mice, Time 10, individual animals
[6] = KO mice, Time 20, individual animals
[7] = KO mice, Time 40, individual animals
[8] = KO mice, Time 60, individual animals
[9] = KO mice, Time -60, individual animals
[10] = WT mice, Time 0, individual animals
[11] = WT mice, Time 10, individual animals
[12] = WT mice, Time 20, individual animals
[13] = WT mice, Time 60, individual animals
[14] = WT mice, Time -60, individual animals

O=C1NC(=O)C(C2CCOc3cc(Oc4ccc(C(F)(F)F)cc4Cl)ccc32)S1 (stereo not drawn) [MK-2305, reference compound]
blood glucose excursion during IPGTT [1, 3]: reduced | insulin following dextrose challenge (IPGTT) [1, 3]: no effect | Blood Glucose [1, 4]: 151 mg/dL and 150 mg/dL and 186 mg/dL and 194 mg/dL and 152 mg/dL and 171 mg/dL and 161 mg/dL | Plasma Insulin [1, 4]: 0.848 ng/mL and 0.42 ng/mL and 0.528 ng/mL and 1.053 ng/mL and 0.383 ng/mL and 0.356 ng/mL and 0.379 ng/mL | Blood Glucose [1, 5]: 359 mg/dL and 371 mg/dL and 443 mg/dL and 389 mg/dL and 416 mg/dL and 530 mg/dL | Plasma Insulin [1, 5]: 1.175 ng/mL and 0.368 ng/mL and 0.464 ng/mL and 0.199 ng/mL and 0.51 ng/mL and 0.24 ng/mL and 0.661 ng/mL | Blood Glucose [1, 6]: 361 mg/dL and 257 mg/dL and 455 mg/dL and 411 mg/dL and 438 mg/dL and 432 mg/dL and 566 mg/dL | Plasma Insulin [1, 6]: 1.151 ng/mL and 0.543 ng/mL and 0.441 ng/mL and 1.015 ng/mL and 0.58 ng/mL and 0.405 ng/mL and 0.254 ng/mL | Blood Glucose [1, 7]: 332 mg/dL and 292 mg/dL and 386 mg/dL | Plasma Insulin [1, 7]: 0.591 ng/mL and 0.442 ng/mL and 0.194 ng/mL and 0.983 ng/mL and 0.199 ng/mL and 0.278 ng/mL and 0.213 ng/mL | Blood Glucose [1, 8]: 346 mg/dL and 269 mg/dL and 435 mg/dL and 335 mg/dL and 332 mg/dL and 352 mg/dL and 512 mg/dL | Plasma Insulin [1, 8]: 0.58 ng/mL and 0.57 ng/mL and 0.264 ng/mL and 0.784 ng/mL and 0.335 ng/mL and 0.275 ng/mL and 0.261 ng/mL | Blood Glucose ([1]; KO mice, Time 120, individual animals): 303 mg/dL and 186 mg/dL and 397 mg/dL and 270 mg/dL and 224 mg/dL and 260 mg/dL and 402 mg/dL | Blood Glucose [1, 9]: 180 mg/dL and 203 mg/dL and 200 mg/dL and 205 mg/dL and 188 mg/dL and 236 mg/dL and 197 mg/dL | Plasma Insulin [1, 9]: 0.786 ng/mL and 0.573 ng/mL and 0.295 ng/mL and 0.819 ng/mL and 0.47 ng/mL and 0.336 ng/mL and 0.379 ng/mL | Blood Glucose ([1]; KO mice, Time -90, individual animals): 165 mg/dL and 181 mg/dL and 160 mg/dL and 198 mg/dL and 154 mg/dL and 193 mg/dL and 185 mg/dL | Blood Glucose Net AUC ([1]; KO mice): 26136 and 8611 and -3694 and 17776 and 10566 and 8161 and 9656 | Plasma Insulin Net AUC ([1]; KO mice): -6.842 and 24.846 and 2.455 and -5.609 and 23.949 and -2.988 and -7.445 | Blood Glucose [1, 10]: 173 mg/dl and 130 mg/dl (2×) and 172 mg/dl and 136 mg/dl and 151 mg/dl and 154 mg/dl | Plasma Insulin [1, 10]: 2.909 ng/mL and 1.344 ng/mL and 1.761 ng/mL and 0.655 ng/mL and 1.362 ng/mL and 1.244 ng/mL and 1.598 ng/mL | Blood Glucose [1, 11]: 300 mg/dL and 375 mg/dL and 416 mg/dL and 324 mg/dL and 318 mg/dL and 369 mg/dL and 438 mg/dL | Plasma Insulin [1, 11]: 1.538 ng/mL and 1.501 ng/mL and 2.253 ng/mL and 0.689 ng/mL and 0.787 ng/mL and 2.31 ng/mL and 1.19 ng/mL | Blood Glucose [1, 12]: 341 mg/dL and 386 mg/dL and 396 mg/dL and 278 mg/dL and 357 mg/dL and 365 mg/dL and 487 mg/dL | Plasma Insulin [1, 12]: 3.87 ng/mL and 1.373 ng/mL and 1.842 ng/mL and 0.672 ng/mL and 0.733 ng/mL and 1.031 ng/mL and 1.681 ng/mL | Plasma Insulin ([1]; WT mice, Time 40, individual animals): 3.585 ng/mL and 1.27 ng/mL and 1.204 ng/mL and 0.278 ng/mL and 1.824 ng/mL and 0.546 ng/mL and 1.72 ng/mL | Blood Glucose [1, 13]: 285 mg/dL and 328 mg/dL and 270 mg/dL and 195 mg/dL and 296 mg/dL and 260 mg/dL and 442 mg/dL | Plasma Insulin [1, 13]: 2.679 ng/mL and 1.626 ng/mL and 1.133 ng/mL and 0.252 ng/mL and 0.763 ng/mL and 0.592 ng/mL and 1.175 ng/mL | Blood Glucose ([1]; WT mice, Time 120, individual animals): 328 mg/dL and 300 mg/dL and 191 mg/dL and 160 mg/dL and 218 mg/dL and 205 mg/dL and 311 mg/dL | Blood Glucose [1, 14]: 177 mg/dl (2×) and 182 mg/dl and 162 mg/dl (2×) and 153 mg/dl and 176 mg/dl | Plasma Insulin [1, 14]: 2.201 ng/mL and 1.482 ng/mL and 1.004 ng/mL and 0.467 ng/mL and 0.749 ng/mL and 1.475 ng/mL and 2.049 ng/mL | Blood Glucose ([1]; WT mice, Time -90, individual animals): 182 mg/dL and 151 mg/dL and 166 mg/dL and 146 mg/dL and 175 mg/dL and 155 mg/dL and 164 mg/dL | Blood Glucose Net AUC ([1]; WT mice): 22732 and 10047 and 12357 and 7637 and -1383 and 8197 and 6232 | Plasma Insulin Net AUC ([1]; WT mice): 17.355 and 112.532 and 10.066 and 20.452 and -45.584 and -4.157 and -12.281

C[C@H](C(=O)O)[C@H](c1ccc2c(c1)O[C@H](C1CN(Cc3cc(C(F)(F)F)ccc3C(F)(F)F)C1)CC2)C1CC1 [AP3]
Plasma Glucagon ([2]; KO mice): 20.25 pg/mL and 37.44 pg/mL and 95.8 pg/mL and 40.58 pg/mL and 53.81 pg/mL and 63.13 pg/mL and 24.92 pg/mL | circulating glucagon ([2]; WT mice, 30 mg/kg PO, 1h post dose): increase | Plasma Glucagon ([2]; WT mice): 137.56 pg/mL and 161.08 pg/mL and 195.45 pg/mL and 174.67 pg/mL and 101.1 pg/mL and 67.12 pg/mL and 161.82 pg/mL
